In brackets after ≈: the same amount, converted by molar mass. Like-named read-outs stand apart in the source and are kept apart here.
How the values were obtained:
[1] = In vitro metabolic stability, mouse liver microsomes; format: in vitro ADME; settings: N=3, read-out: CLint MLM
Experimental: (§1) Acetonitrile and caffeine were dispensed using a Mantis Formulatrix. Then samples were centrifuged for 20 min at 2.270 x g at 4 °C and the supernatants were transferred to 96-well Greiner V-bottom plates. Peak areas of each compound and of the internal standard were analyzed using the MultiQuant 3.0 software (AB Sciex). Peak areas of the respective compound were normalized to the internal standard peak area and to the respective peak areas at time point 0 min: (C/D)/(A/B) with A: peak area of the compound at time point 0 min, B: peak area of the internal standard at time point 0 min, C: peak area of the compound at the respective time point, D: peak area of the internal standard at the respective time point.
(§2) In vitro metabolic stability assay
(§3) Liver microsomes (mouse and human, Thermo Fisher) were thawed slowly on ice. 20 mg/mL of microsomes, 2 µL of a 100 µM solution of every compound and 183 µL of 100 mM phosphate buffer were incubated 5 min at 37 °C in a water bath. Reactions were initiated using 10 µL of 20 mM NADPH (CarlRoth). Samples were incubated in three replicates at 37 °C under gentle agitation at 150 rpm. At 0, 5, 15, 30, and 60 min, reactions were terminated by the addition of 180 µL acetonitrile using a Mantis Formulatrix dispenser. Samples were vortexed for 5 min using an Eppendorf MixMate vortex mixer and centrifuged at 2.270 x g for 20 min at 4 °C. The supernatants were transferred to 96-well Greiner V-bottom plates, sealed and analyzed according to the section HPLC-MS analysis. Peak areas of the respective time point of the compounds were normalized to the peak area at time point 0 min. Then half-life was calculated using linear regression (Microsoft Excel). Clint [µL/min/mg protein] was calculated using the following formula: […]

[2] = in vitro; format: in vitro ADME; settings: pH 7.4, 37 °C
Experimental: Then, we analyzed the stability of the compounds in plasma. […] The observed increase in plasma stability of the tested amide derivatives compared to bisacylhydrazone 14 supports our design hypothesis for the isosteric replacement of the bisacylhydrazone linking motif. […]
Each compound dissolved in DMSO was added to mouse plasma (pH 7.4, 37 °C) or to human plasma (pH 7.4, 37 °C) to yield a final concentration of 1 µM. In addition, procaine and procainamide (dissolved in DMSO) were added to mouse plasma or to human plasma (pH 7.4, 37 °C) to yield a final concentration of 1 µM. Procaine served as positive control as it is unstable in mouse plasma. Procainamide served as negative control as it is stable in mouse plasma. The samples were incubated for 0 min, 15 min, 30 min, 60 min, 90 min, 120 min and 240 min at 37 °C. At each time point, 10 µl of the respective sample was extracted with 90 µL acetonitrile containing 12.5 ng/mL caffeine as internal standard for 5 min at 2000 rpm on a MixMate vortex […]
as §1, with “mixer (Eppendorf). Acetonitrile” for “Acetonitrile”, “point. […]” for “point.”
2 hours at 800 rpm on an Eppendorf MixMate vortex-mixer. Then samples were withdrawn from the respective chambers. To 25 µL of each dialysis sample, 25 µL of plasma and to 25 µL of plasma sample, 25 µL of dialysis buffer was added. Then 150 µL ice-cold extraction solvent (ACN/H2O (90:10) containing 12.5 ng/mL caffeine as internal standard) was added. Samples were incubated for 30 min on ice. Then samples were centrifuged at 4 °C at 2270 x g for 10 min.

[3] = In vitro metabolic stability, human liver microsomes; format: in vitro ADME; settings: N=3, read-out: CLint HLM
Experimental: We then determined the in vitro metabolic stability in plasma and liver microsomes as well as plasma protein binding for a selected subset of the synthesized LecA inhibitors, i.e. D1, D2, H1, H2 and L2 and compared them to the parent bisacylhydrazone 14 (Table 2). […] The metabolic stability of the compounds differed in presence of human liver microsomes (HLM). Introduction of a pyridine ring decreased stability (H1 CLint=28.6 μL min^−1/mg protein, H2 CLint=32.5 μL min^−1/mg protein) compared to the benzene analogues (D1 CLint=21.9 μL min^−1/mg protein, D2 CLint=21.0 μL min^−1/mg protein) and to the parent acylhydrazone 14 (CLint=19.6 μL min^−1/mg protein). […]
as §1, with “mixer (Eppendorf). Acetonitrile” for “Acetonitrile”
as §2, §3

[4] = Kinetic solubility in TBS/Ca2+ buffer (HPLC-MS); format: physicochemical; settings: aqueous buffer, kinetic from dmso stock; TBS/Ca2+ buffer pH 7.4, 1 % DMSO, N≥3; read-out: Solubility S (kinetic)
Experimental: Next, we quantified the solubility of at least one representative of each new class and of one parent bisacylhydrazone in aqueous media (Table 1). […]
TBS/Ca2+ buffer (20 mM Tris, 137 mM NaCl, 2.6 mM KCl at pH 7.4 supplemented with 1 mM […]
CaCl2) in presence of 25% DMSO. […]
Kinetic solubility was determined on the analytical HPLC-MS using Compass QuantAnalysis quantification software (Bruker). Samples were prepared from DMSO stock solutions by dilution with TBS/Ca2+ buffer to 100 µM with 1% DMSO present. Samples were incubated on a shaker for 1 h at r.t., centrifuged (21380 g, 20 min), supernatants were diluted with DMSO (1:3), analyzed by HPLC-MS and fitted to the individual calibration curves.
Every experiment was repeated independently at least three times. […]

[5] = system: P. aeruginosa; set-up: method as in PMID 25136128, PMID 25044671; settings: 10 mM; cited from earlier work
[6] = system: P. aeruginosa PAO1; assay: Invasion assay of P. aeruginosa PAO1 into H1299 cells; format: cell-based, Pseudomonas aeruginosa; settings: PAO1 into H1299 cells, N≥4
Experimental: P. aeruginosa is able to invade non‐phagocytic cells via a lipid zipper mechanism.[10] Binding of LecA to the glycosphingolipid Gb3 followed by LecA‐induced receptor clustering plays a crucial role in this process. The LecA ligand 4‐nitrophenyl α‐ D‐galactopyranoside (PNPG) has been previously shown to interfere with these events at a high concentration of 10 mM leading to a reduction of bacterial invasiveness to 30–60 % as compared to untreated bacteria (100 % invasiveness).[10, 31] For invasion assays, H1299 cells were incubated with P. aeruginosa in presence and absence of LecA inhibitors, followed by killing of extracellular bacteria with the antibiotic amikacin. Then, all intracellular bacteria were released by lysis of the human cells and viable bacteria were quantified by plating. To assess the impact of LecA inhibitors on the invasiveness, the influence of the divalent LecA inhibitor L2 on bacterial invasion into host cells was evaluated and compared to PNPG. […] In contrast, the divalent LecA ligand L2 achieved an invasion decrease to 44 % already at 100 μM (Figure 5c). L2 was thus able to reach a similar reduction of invasion at a 100‐fold lower concentration than the one needed for PNPG. […]
lectin-inhibitor solution for 24 h at 37 °C. In order to depict exactly the same position for each wound, marker lines were drawn on the bottom of the 12-well plates for each well. The samples were imaged with an EVOS microscope (PEQLAB by VWR Life Sciences, Avantor […]
Excel. […]
A chromosomally GFP-tagged Gentamicin-resistant Pseudomonas aeruginosa PAO1 strain was cultured (LB medium supplemented with 60 µg/mL Gentamicin, 37 °C, 180 rpm, 16 h) and invasion assays were performed in analogy to Eierhoff et al..[13] 1.5 x 10^4 H1299 cells per well were seeded one day prior to the invasion assay in a 96-well plate with flat bottom. An […]
overnight culture of P. aeruginosa was centrifuged for 5 min at 3000 x g, washed with PBS (- /-) and re-suspended in RPMI 1640 medium. The newly synthesized divalent LecA ligand L2 was compared to 4-nitrophenyl α-D-galactopyranoside (PNPG; Sigma-Aldrich, Chemie GmbH, Darmstadt, Germany). […]
Subsequently, cells were washed three times with DPBS and lysed by incubation with 0.25% (v/v) Triton X-100 (Carl Roth GmbH & Co. KG, Karlsruhe, Germany) for 5 min at 37 °C and 180 rpm. […] Bacterial colonies were counted the next day. […] The invasion rate was calculated as the number of intracellularly localized bacteria divided by the total number of non-treated bacteria, bacteria that were not treated with any ligands and neither amikacin, thus the number of P. aeruginosa that successfully invaded or stayed attached to the host cells. Experiments were repeated independently at least four times (N ≥ 4) and evaluated […]

With `O=C(N/N=C/c1ccc(OCCOc2ccc(/C=N/NC(=O)c3ccc(O[C@@H]4O[C@H](CO)[C@H](O)[C@H](O)[C@H]4O)cc3)cc2)cc1)c1ccc(O[C@@H]2O[C@H](CO)[C@H](O)[C@H](O)[C@H]2O)cc1` [Compound 14, reference compound] the microsomal CLint at 1 µM [1] was < 23 µL/min/mg, the half-life at 1 µM ([2]; human plasma, read-out: Plasma stability t1/2 Human) was 2.06 h and the half-life at 1 µM ([2]; mouse plasma, read-out: Plasma stability t1/2 Mouse) was 0.815 h. For the same compound, the microsomal CLint at 1 µM [3] was 19.6 µL/min/mg and the solubility kinetic at 1 h [4] was 1.6 ± 0.4 µM (≈ 1.38 µg/mL).
In the case of `O=[N+]([O-])c1ccc(O[C@H]2O[C@H](CO)[C@H](O)[C@H](O)[C@H]2O)cc1` [PNPG, 4-nitrophenyl α-D-galactopyranoside, reference compound], the “Bacterial invasiveness (untreated bacteria 100 %)” value [5] is listed as 30–60%, the “Bacterial invasiveness (untreated bacteria 100 %)” value ([6]; 100 μM inhibitor) is listed as 89% and the “Bacterial invasiveness (untreated bacteria 100 %)” value ([6]; 10 mM inhibitor) is listed as 44%.

— publication PMC10107299, “Neutralizing the Impact of the Virulence Factor LecA from Pseudomonas aeruginosa on Human Cells with New Glycomimetic Inhibitors” (Angewandte Chemie (International Ed. in English), 2023)
